How the values were obtained:
amyloid plaques = test: Use against Alzheimer's disease (radiotracer / therapeutic agent)
Excerpt: In fact, it is capable of binding to the amyloid plaques, the accumulation whereof within the nerve cells characterises the presence of the pathology, and catalyses its formation process. By crossing the blood-brain barrier, the deposit of the subject drug is suitably identified inside said amyloid plaques, providing a diagnostic feedback beyond all doubts.
In fact, the drug, by binding to said amyloid plaques, initially stabilises the growth thereof, to then slower it by braking such “drug-plaque” bonds.

[1] = test system: solid tumours, neuroendocrine tumours, melanomas, leukaemias and lymphomas; test: Therapeutic effectiveness in cancer pathologies; details: solid tumours (pancreas, prostate, brain, breast, ovary, head-neck, oesophagus, stomach, intestines, colon, liver, lung)
DNA of the cancer cell = test: Laboratory experimental tests of Auger radioactive effect on cancer cells; details: dosage 1.5 Bq for each cell
Description: Said dosage is equal to a 1.5 Bq (Becquerel) for each cell, a quantity such that the therapeutic effectiveness of the drug is carried out through the expression of the toxicity thereof only inside the nucleus, achieving a true target therapy.

Question: What does the source list for `[64Cu+2].[Cl-].[Cl-]` [64CuCl2, copper-64 chloride]?
Answer: therapeutic agent against neuronal cells affected by the Alzheimer's disease (amyloid plaques; average dose 3,700 MBq): carries out the function of therapeutic agent; radiotracer for the diagnosis of the Alzheimer's disease (amyloid plaques; average dose of 370 MBq): capable of acting as a radiotracer; effectiveness as a therapeutic agent for cancer pathologies [1]: effective; Auger radioactive effect on DNA of the cancer cell (DNA of the cancer cell): capable of destroying the DNA of the cancer cell; volume of the tumoural lesions in solid tumours (DNA of the cancer cell): reducing the volume of the tumoural lesions in solid tumours

From patent publication US20160296644A1, “ANTICANCER DRUG, COMPRISING A COPPER RADIOISOTOPE” (priority 2013, published 2016)
